How the values were obtained:
[1] = test system: ZDF rats; experiment: Urinary albumin/creatinine in ZDF rats, treatment starting at an animal age of 6 months; assay type: in vivo, rat; conditions: start at age 6 months, mean
[2] = test system: Zucker Diabetic Fatty (ZDF) Rats (ZDF Gmi fa/fa); experiment: Urinary excretion of albumin and creatinine in ZDF rats treated from 10 to 37 weeks of age; assay type: in vivo, rat; conditions: for Urine excretion Albumin / Urine excretion Albumin/Creatinine: ZDF rats, mean
Method: The protein and creatinine excretion in the urine of male Zucker Diabetic Fatty (ZDF) Rats (ZDF Gmi fa/fa) and heterozygous control animals (ZDF Gmi −/+) of 10, 17, 27 and 37 weeks age was determined. In further groups, diabetic rats were chronically given either ramipril (1 mg/kg/day, in drinking water) or a compound of formula (II-B) (30 mg/kg/day, in food) over a period from 10 to 37 weeks. The animals were sacrificied after 37 weeks, and their kidneys examined histologically.

[3] = test system: ZDF rats; experiment: Dot blot analysis of kidney AGE subtypes (CML, CEL, pentosidine) in ZDF rats; assay type: in vivo, rat
Method: Kidney AGE values were determined by Dot blot analysis (Stracke et al., Exp. Clin. Endocrinol. Diabets 2002, 109, 330-336) and Reversed-phase high performance liquid chromatography or RP-HPLC (Drusch et al., Food Chem. 1999, 65, 547-553).
Kidney-samples for the dot blot analysis were obtained from 17-week-old male ZDF rats, control rats and ZDF rats treated for seven weeks with 30 mg/kg/d of compound (II-B) and 35 mg/kg/d of compound (III-B). Three animals of each group were sacrificed, the kidneys removed and immediately frozen in liquid nitrogen. Grinding of the kidneys was performed in liquid nitrogen using a freezer mill (Freezer 6750, C3 Analysetechnik GmbH). Kidney sample (10 mg) was dissolved in 1 ml phosphate buffered saline (PBS containing 0.5 g/l Tween 20, 0.5 mM PMSF, […]). The solution was treated two times for five seconds with an ultrasonic cell disrupter (45% power, Bandolin Sonoplus HD 2070), centrifuged for 20 minutes at 4000 rpm and the supernatant was used for dot blot analysis. The nitrocellulose membrane was placed in the dot blot apparatus and washed twice with Tris Buffered Saline (TBS), 100 μl TBS/well. For each sample, 10 μg protein (protein concentration of the samples were determined with the DC Protein Assay, Bio Rad) was diluted in 100 μl TBS and loaded on to the nitrocellulose membrane (Amersham). The membrane was incubated over night in TBS with Tween 20 (TBST; 20 mM Tris, 137 mM NaCl, 0.05% v/v Tween 20) with 5% non-fat dry milk at 4° C. and incubated for 1 hour at room temperature using the following antibody concentration: anti-CML 011 (Biologo) 0.25 μg/ml, anti-CEL (Biologo) 0.25 μg/ml and anti-pentosidine 012 (Biologo) 0.25 μg/ml. After extensive washing in TBST with 5% non-fat dry milk, membranes were exposed to […] anti-mouse IgG antibodies (Dianova) for one hour at room temperature. Membranes were washed again and exposed to the enhanced chemofluorescence detection system (Amersham) according to manufacturer's instructions. Relative fluorescence was determined with the Fluor-Imager 595 (Molecular Dynamics) and quantified using the Image-Quant software. Results were expressed in relative fluorescence (rf) times 10^5 (rf*10^5).

[4] = test system: Goto-Kakizaki (GK) rats; experiment: Albumin and creatinine excretion in Goto-Kakizaki (GK) rats; assay type: in vivo, rat; conditions: start at age 6 months, mean
Method: The albumin and creatinine excretion in Goto-Kakizaki (GK) rats was determined. GK rats are a model for Type II diabetes. One group was left untreated, one was treated with the ACE/NEP inhibitor of formula (II-B) and one group was treated with the ACE inhibitor ramipril. [table]

[5] = test system: Zucker diabetic fatty rats; experiment: HbA1c analysis in ZDF rats; assay type: in vivo, rat; conditions: for HbA1c, mean: ZDF rats
Method: (§1) Blood glucose and HbA1c was measured in 10- and 17-week-old male Zucker diabetic fatty rats (Genetic Model Inc.), control rats (Genetic Model Inc.) and male ZDF rats treated for seven weeks with 30 mg/kg/d of compound (II-B), 35 mg/kg/d of compound (III-B) and 1 mg/kg/d ramipril. Fifteen animals were analyzed in each group.
To obtain blood samples for HbA1c determination, disposable capillary tubes were used. HbA1c values were obtained from hemolyzed whole blood samples with a turbidimetric inhibition immunoassay (Tina-quant, Roche Diagnostics GmbH) and hemoglobin concentrations were determined in a second channel on an automated clinical chemistry analyzer (Boehringer Mannheim/Hitachi 912). HbA1c concentration in percent were calculated from HbA1c to total hemoglobin.

[6] = test system: isolated aortic rings of rabbits; experiment: Relaxation of aortic rings by acetylcholine in rabbits fed an atherogenic diet; assay type: in vivo, White New Zealand rabbits; conditions: for Relaxation of aortic rings by acetylcholine: varied diet rabbits, mean ± SEM
Source text: It was shown in the atherogenic rabbit model (White New Zealand rabbits were fed with 0.25% cholesterol plus 3% coconut oil) that even a short 6 week period of an atherogenic diet leads to sustained endothelial dysfunction, even though the animals received a normal diet for 3 months thereafter. […] The endothelium-dependent relaxation of isolated aortic rings of rabbits as well as the release of nitric oxide and superoxide from endothelial cells serve as measures of endothelial dysfunction. […] (II-B) [table]

[7] = test system: Zucker diabetic fatty rats; experiment: Blood glucose analysis in ZDF rats; assay type: in vivo, rat; conditions: for blood glucose, mean: ZDF rats
Method: as §1
Blood samples for glucose determination were obtained from ZDF rats using standard sampling tubes. Within 30 minutes of collection, samples were separated from the cells by centrifugation. Quantitative determination of blood glucose in serum was performed with an enzymatic in vitro test from Roche Diagnostics GmbH (Gluco-quant, Roche Diagnostics GmbH) using the automated clinical chemistry analyzer Boehringer Mannheim/Hitachi 912.

[8] = 17-week-old ZDF rats treated for seven weeks, dot blot
[9] = age 10 weeks (start of treatment)
[10] = age 17 weeks (treated for seven weeks)

## CC(=O)S[C@H](C(=O)N[C@H]1Cc2ccccc2[C@H]2CCC[C@@H](C(=O)O)N2C1=O)C(C)C [cpd. (II-B)]
[1]; 6 weeks treatment
  Albumin/Creatinine: 135.08 mg/mmol
[1]; 12 weeks treatment
  Albumin/Creatinine: 100.86 mg/mmol
[1]; Basal
  Albumin/Creatinine: 1330.99 mg/mmol
[2]; week 0 of treatment
  Urine excretion Albumin: 0.27 mg/kg/h
  Urine excretion Albumin/Creatinine: 48.56 mg/mmol
[2]; week 7 of treatment
  Urine excretion Albumin: 0.09 mg/kg/h
  Urine excretion Albumin/Creatinine: 14.30 mg/mmol
[2]; week 17 of treatment
  Urine excretion Albumin: 0.41 mg/kg/h
  Urine excretion Albumin/Creatinine: 44.63 mg/mmol
[2]; week 27 of treatment
  Urine excretion Albumin: 1.39 mg/kg/h
  Urine excretion Albumin/Creatinine: 152.71 mg/mmol
[2]; nephroprotective effect, compared with ramipril
  Effect relative to the ACE inhibitor ramipril: 6-8 fold
[3]; [8]
  AGE-subtype CEL in the kidneys (anti-CEL), mean: 50.24 rf * 10^5
  AGE-subtype CML in the kidneys (anti-CML 011), mean: 32.62 rf * 10^5
  AGE-subtype pentosidine in the kidneys (anti-pentosidine 012), mean: 44.99 rf * 10^5
[3]; diabetic rats, summary in words
  Kidney AGE (Nε-(carboxymethyl)lysine or CML) values: normalizes
[3]; kidney, dot blot, in words
  AGE values for subtype CEL compared to untreated ZDF rats: significantly less
  AGE values for subtype CML compared to untreated ZDF rats: significantly less
  AGE values for subtype pentosidine compared to untreated ZDF rats: significantly less
[4]; 6 weeks treatment
  Albumin/Creatinine: 17.70 mg/mmol
[4]; 12 weeks treatment
  Albumin/Creatinine: 24.28 mg/mmol
[4]; Basal
  Albumin/Creatinine: 103.95 mg/mmol
[5]; 17-week-old ZDF rats, in words
  HbA1c values compared to the untreated ZDF rats: significantly lower
[5]; [9]
  HbA1c, mean: 5.69%
[5]; [10]
  HbA1c, mean: 8.24%
[5]; in words
  HbA1c value compared with the ACE inhibitor ramipril: lower values
[6]; ACh 10^−5 mol/L after phenylephrine 10^−7 mol/L
  Relaxation of aortic rings by acetylcholine: 80.89 ± 6.82%
[6]; ACh 10^−6 mol/L after phenylephrine 10^−7 mol/L
  Relaxation of aortic rings by acetylcholine: 76.4 ± 6.38%
[6]; ACh 10^−7 mol/L after phenylephrine 10^−7 mol/L
  Relaxation of aortic rings by acetylcholine: 59.62 ± 6.43%
[6]; ACh 10^−8 mol/L after phenylephrine 10^−7 mol/L
  Relaxation of aortic rings by acetylcholine: 19.9 ± 3.48%
[6]; atherogenic rabbit model, in words
  Endothelial dysfunction and atherogenic changes in the blood vessels: both prevented and reversed
[7]; 17-week-old ZDF rats, in words
  Blood glucose concentration compared to the untreated ZDF rats: significantly lower
[7]; [9]
  blood glucose, mean: 10.67 mM
[7]; [10]
  blood glucose, mean: 21.09 mM
[7]; in words
  Blood glucose value compared with the ACE inhibitor ramipril: lower values
